Test results as given in ChEMBL document CHEMBL1153245, “A profile of the in vitro anti-tumor activity of imidazolium-based ionic liquids” (2010).

What was measured:
Format in all cases: functional
[1] = system: OVCAR-4; assay: Anticancer activity against human OVCAR4 cells after 48 hrs by sulforhodamine B assay
[2] = system: HT-29; assay: Anticancer activity against human HT-29 cells after 48 hrs by sulforhodamine B assay
[3] = system: KM12; assay: Anticancer activity against human KM12 cells after 48 hrs by sulforhodamine B assay; details: for CC50: read-out: LC50 (the source's name)
[4] = system: HOP-62; assay: Anticancer activity against human HOP62 cells after 48 hrs by sulforhodamine B assay
[5] = system: SF-539; assay: Anticancer activity against human SF539 cells after 48 hrs by sulforhodamine B assay
[6] = system: A549; assay: Anticancer activity against human A549 cells after 48 hrs by sulforhodamine B assay
[7] = system: TK-10; assay: Anticancer activity against human TK10 cells after 48 hrs by sulforhodamine B assay
[8] = system: SK-MEL-5; assay: Anticancer activity against human SK-MEL-5 cells after 48 hrs by sulforhodamine B assay; details: for CC50: read-out: LC50 (the source's name)
[9] = system: U-251; assay: Anticancer activity against human U251 cells after 48 hrs by sulforhodamine B assay
[10] = system: NCI-H522; assay: Anticancer activity against human NCI-H522 cells after 48 hrs by sulforhodamine B assay
[11] = system: PC-3; assay: Anticancer activity against human PC3 cells after 48 hrs by sulforhodamine B assay
[12] = system: K562; assay: Anticancer activity against human K562 cells after 48 hrs by sulforhodamine B assay
[13] = system: SNB-19; assay: Anticancer activity against human SNB19 cells after 48 hrs by sulforhodamine B assay
[14] = system: HOP-92; assay: Anticancer activity against human HOP92 cells after 48 hrs by sulforhodamine B assay
[15] = system: M14; assay: Anticancer activity against human M14 cells after 48 hrs by sulforhodamine B assay
[16] = Anticancer activity against human […] cells after 48 hrs by sulforhodamine B assay; details: for CC50: read-out: LC50 (the source's name)
[17] = system: LOX IMVI; assay: Anticancer activity against human LOXIMVI cells after 48 hrs by sulforhodamine B assay; details: for CC50: read-out: LC50 (the source's name)
[18] = system: SNB-75; assay: Anticancer activity against human SNB75 cells after 48 hrs by sulforhodamine B assay; details: for CC50: read-out: LC50 (the source's name)
[19] = system: UO-31; assay: Anticancer activity against human UO31 cells after 48 hrs by sulforhodamine B assay
[20] = system: OVCAR-8; assay: Anticancer activity against human OVCAR8 cells after 48 hrs by sulforhodamine B assay
[21] = system: 786-0; assay: Anticancer activity against human 786-0 cells after 48 hrs by sulforhodamine B assay
[22] = system: IGROV-1; assay: Anticancer activity against human IGROV1 cells after 48 hrs by sulforhodamine B assay; details: IGROV-1, 48 h
[23] = system: CCRF-CEM; assay: Anticancer activity against human CCRF-CEM cells after 48 hrs by sulforhodamine B assay
[24] = system: CAKI-1; assay: Anticancer activity against human Caki1 cells after 48 hrs by sulforhodamine B assay
[25] = system: RXF 393; assay: Anticancer activity against human RXF393 cells after 48 hrs by sulforhodamine B assay
[26] = system: UACC-257; assay: Anticancer activity against human UACC257 cells after 48 hrs by sulforhodamine B assay
[27] = system: NCI-H23; assay: Anticancer activity against human NCI-H23 cells after 48 hrs by sulforhodamine B assay
[28] = system: BT-549; assay: Anticancer activity against human BT549 cells after 48 hrs by sulforhodamine B assay; details: for CC50: read-out: LC50 (the source's name)
[29] = system: EKVX; assay: Anticancer activity against human EKVX cells after 48 hrs by sulforhodamine B assay
[30] = system: HCC 2998; assay: Anticancer activity against human HCC2998 cells after 48 hrs by sulforhodamine B assay
[31] = system: MOLT-4; assay: Anticancer activity against human MOLT4 cells after 48 hrs by sulforhodamine B assay
[32] = system: MDA-MB-231; assay: Anticancer activity against human MDA-MB-231 cells after 48 hrs by sulforhodamine B assay; details: for CC50: read-out: LC50 (the source's name)

CCCCCCCCCCCC[n+]1ccn(C)c1.F[B-](F)(F)F
GI50 [1]: 2.59 µM | GI50 [2]: 2.19 µM | GI50 [3]: 1.85 µM | CC50 [3]: 23 µM | GI50 [4]: 9.48 µM | GI50 [5]: 2.88 µM | GI50 [6]: 7.14 µM | GI50 [7]: 2.04 µM | GI50 [8]: 1.66 µM | CC50 [8]: 54.5 µM | GI50 [9]: 2.81 µM | GI50 [10]: 2.96 µM | GI50 [11]: 2.08 µM | GI50 [12]: 0.363 µM | GI50 [13]: 10.9 µM | GI50 [14]: 7.84 µM | GI50 [15]: 4.15 µM | GI50 [16]: 0.312 µM | CC50 [16]: 9.48 µM | GI50 [17]: 1.36 µM | CC50 [17]: 34.9 µM | GI50 [18]: 3.71 µM | CC50 [18]: 90.3 µM | GI50 [19]: 15.9 µM | GI50 [20]: 3.25 µM | GI50 [21]: 5.77 µM | GI50 [22]: 0.533 µM | CC50 ([22]; read-out: LC50 (the source's name)): > 100 µM | GI50 [23]: 1.62 µM | GI50 [24]: 2.99 µM | GI50 [25]: 6.52 µM | GI50 [26]: 3.06 µM | GI50 [27]: 2.44 µM | GI50 [28]: 2.38 µM | CC50 [28]: 51.9 µM | GI50 [29]: 0.792 µM | GI50 [30]: 4.18 µM | GI50 [31]: 2.58 µM | GI50 [32]: 4.68 µM | CC50 [32]: 64.2 µM

CCCCCCCCCCCC[n+]1ccn(C)c1.[Cl-]
GI50 ([1]; Homo sapiens, OVCAR-4, 48 h): 3.17 µM | CC50 ([1]; Homo sapiens, OVCAR-4, 48 h, read-out: LC50 (the source's name)): > 100 µM | GI50 ([2]; Homo sapiens, HT-29, 48 h): 2.6 µM | CC50 ([2]; Homo sapiens, HT-29, 48 h, read-out: LC50 (the source's name)): > 100 µM | GI50 ([3]; Homo sapiens, KM12, 48 h): 2.09 µM | CC50 [3]: 85.8 µM | GI50 ([4]; Homo sapiens, HOP-62, 48 h): 4.86 µM | CC50 ([4]; Homo sapiens, HOP-62, 48 h, read-out: LC50 (the source's name)): > 100 µM | GI50 ([5]; Homo sapiens, SF-539, 48 h): 2.72 µM | GI50 ([6]; Homo sapiens, A549, 48 h): 5.92 µM | GI50 ([7]; Homo sapiens, TK-10, 48 h): 1.92 µM | GI50 ([8]; Homo sapiens, SK-MEL-5, 48 h): 1.22 µM | CC50 [8]: 7.8 µM | GI50 ([9]; Homo sapiens, U-251, 48 h): 2.15 µM | CC50 ([9]; Homo sapiens, U-251, 48 h, read-out: LC50 (the source's name)): > 100 µM | GI50 ([10]; Homo sapiens, NCI-H522, 48 h): 2.37 µM | GI50 ([11]; Homo sapiens, PC-3, 48 h): 1.82 µM | CC50 ([11]; Homo sapiens, PC-3, 48 h, read-out: LC50 (the source's name)): > 100 µM | GI50 ([12]; Homo sapiens, K562, 48 h): 0.498 µM | CC50 ([12]; Homo sapiens, K562, 48 h, read-out: LC50 (the source's name)): > 100 µM | GI50 ([13]; Homo sapiens, SNB-19, 48 h): 6.76 µM | CC50 ([13]; Homo sapiens, SNB-19, 48 h, read-out: LC50 (the source's name)): > 100 µM | GI50 ([14]; Homo sapiens, HOP-92, 48 h): 5.3 µM | CC50 ([14]; Homo sapiens, HOP-92, 48 h, read-out: LC50 (the source's name)): > 100 µM | GI50 [15]: 1.92 µM | GI50 [16]: 0.109 µM | CC50 ([16]; Homo sapiens, RPMI8266, 48 h): 6.13 µM | GI50 ([17]; Homo sapiens, LOX IMVI, 48 h): 1.72 µM | CC50 ([17]; Homo sapiens, LOX IMVI, 48 h): 45.3 µM | GI50 ([18]; Homo sapiens, SNB-75, 48 h): 2.74 µM | CC50 ([18]; Homo sapiens, SNB-75, 48 h): 56.8 µM | GI50 ([19]; Homo sapiens, UO-31, 48 h): 10.2 µM | GI50 ([20]; Homo sapiens, OVCAR-8, 48 h): 2.18 µM | GI50 ([21]; Homo sapiens, 786-0, 48 h): 3.36 µM | GI50 [23]: 0.54 µM | GI50 ([24]; Homo sapiens, CAKI-1, 48 h): 1.79 µM | GI50 ([25]; Homo sapiens, RXF 393, 48 h): 5.9 µM | GI50 ([26]; Homo sapiens, UACC-257, 48 h): 1.68 µM | GI50 [27]: 0.885 µM | CC50 ([27]; Homo sapiens, NCI-H23, 48 h, read-out: LC50 (the source's name)): > 100 µM | GI50 ([28]; Homo sapiens, BT-549, 48 h): 1.84 µM | CC50 ([28]; Homo sapiens, BT-549, 48 h): 50.8 µM | GI50 ([29]; Homo sapiens, EKVX, 48 h): 0.873 µM | CC50 ([29]; Homo sapiens, EKVX, 48 h, read-out: LC50 (the source's name)): > 100 µM | GI50 [30]: 1.89 µM | CC50 ([30]; Homo sapiens, HCC 2998, 48 h, read-out: LC50 (the source's name)): > 100 µM | GI50 ([31]; Homo sapiens, MOLT-4, 48 h): 2.9 µM | GI50 ([32]; Homo sapiens, MDA-MB-231, 48 h): 3.39 µM | CC50 ([32]; Homo sapiens, MDA-MB-231, 48 h): 63.6 µM
